Assay results from ChEMBL document CHEMBL1649312, “Absence of association between piperaquine in vitro responses and polymorphisms in the pfcrt, pfmdr1, pfmrp, and pfnhe genes in Plasmodium falciparum” (Antimicrob Agents Chemother, 2010).

Assays:
Format in all cases: functional, organism-based
[1] = system: Plasmodium falciparum; assay: Antimalarial activity against Plasmodium falciparum FCM29 assessed as inhibition of [3H] incorporation after 48 hrs by scintillation counter
[2] = system: Plasmodium falciparum; assay: Antimalarial activity against Plasmodium falciparum IMT Vol assessed as inhibition of [3H] incorporation after 48 hrs by scintillation counter
[3] = system: Plasmodium falciparum; assay: Antimalarial activity against Plasmodium falciparum IMT 16332 assessed as inhibition of [3H] incorporation after 48 hrs by scintillation counter
[4] = system: Plasmodium falciparum; assay: Antimalarial activity against Plasmodium falciparum IMT 10354 assessed as inhibition of [3H] incorporation after 48 hrs by scintillation counter
[5] = system: Plasmodium falciparum; assay: Antimalarial activity against Plasmodium falciparum IMT 8425 assessed as inhibition of [3H] incorporation after 48 hrs by scintillation counter
[6] = system: Plasmodium falciparum; assay: Antimalarial activity against Plasmodium falciparum IMT 9881 assessed as inhibition of [3H] incorporation after 48 hrs by scintillation counter
[7] = system: Plasmodium falciparum; assay: Antimalarial activity against Plasmodium falciparum IMT K14 assessed as inhibition of [3H] incorporation after 48 hrs by scintillation counter
[8] = system: Plasmodium falciparum; assay: Antimalarial activity against Plasmodium falciparum IMT K4 assessed as inhibition of [3H] incorporation after 48 hrs by scintillation counter
[9] = system: Plasmodium falciparum; assay: Antimalarial activity against Plasmodium falciparum IMT A4 assessed as inhibition of [3H] incorporation after 48 hrs by scintillation counter
[10] = system: Plasmodium falciparum; assay: Antimalarial activity against Plasmodium falciparum IMT 31 assessed as inhibition of [3H] incorporation after 48 hrs by scintillation counter
[11] = system: Plasmodium falciparum; assay: Antimalarial activity against Plasmodium falciparum IMT Guy assessed as inhibition of [3H] incorporation after 48 hrs by scintillation counter
[12] = system: Plasmodium falciparum; assay: Antimalarial activity against Plasmodium falciparum IMT L1 assessed as inhibition of [3H] incorporation after 48 hrs by scintillation counter
[13] = system: Plasmodium falciparum; assay: Antimalarial activity against Plasmodium falciparum W2 assessed as inhibition of [3H] incorporation after 48 hrs by scintillation counter
[14] = system: Plasmodium falciparum; assay: Antimalarial activity against Plasmodium falciparum 106/1 assessed as inhibition of [3H] incorporation after 48 hrs by scintillation counter
[15] = system: Plasmodium falciparum; assay: Antimalarial activity against Plasmodium falciparum HB3 assessed as inhibition of [3H] incorporation after 48 hrs by scintillation counter
[16] = system: Plasmodium falciparum; assay: Antimalarial activity against Plasmodium falciparum 3D7 assessed as inhibition of [3H] incorporation after 48 hrs by scintillation counter
[17] = system: Plasmodium falciparum; assay: Antimalarial activity against Plasmodium falciparum D6 assessed as inhibition of [3H] incorporation after 48 hrs by scintillation counter
[18] = system: Plasmodium falciparum; assay: Antimalarial activity against Plasmodium falciparum IMT Bres assessed as inhibition of [3H] incorporation after 48 hrs by scintillation counter
[19] = system: Plasmodium falciparum; assay: Antimalarial activity against Plasmodium falciparum PA assessed as inhibition of [3H] incorporation after 48 hrs by scintillation counter
[20] = system: Plasmodium falciparum; assay: Antimalarial activity against Plasmodium falciparum IMT 10500 assessed as inhibition of [3H] incorporation after 48 hrs by scintillation counter

SMILES | IC50 [1] [nM] | IC50 [2] [nM] | IC50 [3] [nM] | IC50 [4] [nM] | IC50 [5] [nM] | IC50 [6] [nM] | IC50 [7] [nM] | IC50 [8] [nM] | IC50 [9] [nM] | IC50 [10] [nM] | IC50 [11] [nM] | IC50 [12] [nM] | IC50 [13] [nM] | IC50 [14] [nM] | IC50 [15] [nM] | IC50 [16] [nM] | IC50 [17] [nM] | IC50 [18] [nM] | IC50 [19] [nM] | IC50 [20] [nM]
C[C@H]1c2cccc(O)c2C(=O)C2=C(O)[C@]3(O)C(=O)C(C(N)=O)=C(O)[C@@H](N(C)C)[C@@H]3[C@@H](O)[C@@H]21 [DOXYCYCLINE] | 11600 | 9100 | 13700 | 4600 | 10900 | 8700 | 11500 | 10200 | 9200 | – | – | – | – | – | – | – | – | – | – | –
CCNCc1cc(Nc2ccnc3cc(Cl)ccc23)ccc1O [DESETHYL AMODIAQUINE] | 314 | 82 | 52 | 20 | 27 | 34 | 166 | 113 | 123 | 29 | 45 | 85 | 135 | 32 | 32 | 26 | 23 | 104 | 119 | 40
